Measured values reported in US12187762B2, “Dithiolsaccharide mucolytic agents and uses thereof” (The Regents of the University of California, priority 2018, dated 2025).
“Also recorded” adds a separate entry of the source.

Assays:
[1] = Cone-and-plate rheology of elastic modulus (G′) in thiolated hydrogel substrate; settings: for concentration needed to cause a 40% decrease in the G′ of the hydrogel (ΔG′=−40%): 30 min incubation, dose response 0.5-10 mM
Description: 2.2. Preparation of thiolated hyaluronic acid hydrogel as a model substrate: Thiolated hyaluronic acid hydrogel (Glycosil®, ESI-BIO) was solubilized in 10% DMSO/75 mM NaCl/sodium phosphate pH 7.4 buffer, prepared using degassed water. Aliquots of 250 microliter of gel solution were distributed to 1.5 ml centrifuge tubes, sealed, and incubated overnight (˜18 hours) at room temperature to allow for slow oxidation and cross-linking of the hydrogel. Gels formed by this protocol typically yielded elastic moduli of 20-30 Pa, measured by cone-and-plate rheology.
2.3. Rheological measurements: A rheometer was employed to determine the effect of the compounds disclosed herein on the elastic modulus (G′) of ex vivo human sputum or model hydrogel substrate. The terms “elastic modulus”, G′, and the like refer to the elastic modulus as known in the art. Rheological measurements were made with AR2000 or DHR cone-and-plate rheometer (TA instruments), as known in the art. For sputum samples, ˜0.8 mL was used per assay, with 40 mm 2° geometry. For thiolated hydrogel samples, 0.25 mL was used per assay, with 40 mm ½° geometry. For timesweep recordings, a solvent trap with water as solvent was employed to minimize drying. Test compounds were dissolved in water and added at 10% v/v, to result in the final concentration of interest in the sample. The effect of test compound was measured by taking measurements every 2 min, for a period of 30 min. Normalized ratio % G′ was calculated by dividing the post treatment measurement of G′ at particular timepoint by pretreatment measurement of G′. Percent change in elastic modulus (% ΔG′) was calculated by comparing the measurement at 30 min to the initial pretreatment baseline.
Rheological measurements with Compound 1, Compound 5, Compound 9 and N-acetylcysteine at concentrations between 0.5-10 mM were conducted in order to understand the dose dependence of mucolytic efficacy on concentration of the dithiol test agents (FIG. 3). Effective concentration that causes 40% change in G′ for each test agent was determined. All dithiols tested cause 40% change in G′ at concentrations <1 mM, while NAC requires ˜8-10× higher dose to achieve the same mucolytic effect.
Mucolytic efficacy data was collected in cross-linked thiolated hydrogel model system for multiple enabled dithiolsaccharide compounds and N-acetylcysteine at 5 mM.

C57BL/6 mice = experiment: In vivo safety assessment, mouse intranasal (pulmonary) delivery model
Description: Body weights were recorded on days 1, 8 and 15. On day 15, BAL was performed and used for total and differential cell counts. Mice were euthanized on day 15, and whole lung was fixed in 10% formalin, embedded in paraffin, sectioned and H&E stained for subsequent injury scoring by board-certified lung pathologist (Table 1B provides scoring criteria). Scoring was done blindly. Sera were obtained from blood collected by cardiac puncture and tested for renal and metabolic function outcomes.
Table 1. […] Safety outcomes in mouse pulmonary delivery model (A). […] Outcome measures of safety included body weight, renal function tests, measures of lung injury in bronchoalveolar lavage (BAL), and histologic appearance of tissue sections from formalin-fixed and paraffin-embedded lungs.

[2] = tested on: primary human airway epithelial cells (AECs); experiment: G6PD release cytotoxicity assay in airway epithelial cells at air-liquid interface; format: cell-based; settings: Compound 1 disodium salt, apical exposure 1 hr at 37° C. at 5, 25 and 50 mM, 6 hr recovery; compared with PBS control
Description: Briefly, primary tracheobronchial epithelial cells from ten donors were expanded in culture and differentiated at air-liquid interface for 21 days. Detailed cell culture protocols for airway epithelial cells can be found in Lachowicz-Scroggins et al, Cell Discov, 4, Article 7, 2018 and Widdicombe et al, Biotechniques, 39, 249-255, 2005. Compound 1 (disodium salt) was dissolved in PBS, added to apical surface of the cells at 5, 25 and 50 mM and left for 1 hr at 37° C. PBS was negative control. The apical and basolateral surfaces were washed with PBS, fresh media was added to basolateral side for 6 hr recovery period and collected for G6PD measurements. One control filter was harvested for full lysis with NP-40 lysis buffer to measure total G6PD content in cell lysates.
G6PD (glucose 6-phosphase dehydrogenase) release is a common method of assessing the extent of cellular damage or death. G6PD was measured using Vybrant® Cytotoxicity Assay Kit (ThermoFisher Scientific) and expressed as percent released relative to the total G6PD content.

[3] = mean ± SEM, BAL on day 15, intranasal 30 μL, 25 mM, 10 doses
[4] = mean ± SEM, serum, intranasal 30 μL, 25 mM, 10 doses

With `CC(=O)N[C@@H](CS)C(=O)O` [NAC, N-acetylcysteine, reference compound] the “concentration needed to cause a 40% decrease in the G′ of the hydrogel (ΔG′=−40%)” value [1] was 8 mM and the “dose of NAC relative to dithiols needed to achieve the same mucolytic effect (40% change in G′)” value ([1]; fold higher dose than dithiols) was 8-10 ×.
With `CO[C@]1(CS)O[C@H](CS)C(O)C1O` (stereo partly drawn) [Compound 9, Methyl-1,6-dithio-1,6-dideoxy-β-D-fructofuranoside] the “concentration needed to cause a 40% decrease in the G′ of the hydrogel (ΔG′=−40%)” value [1] was 0.7 mM.
For `OC1C(O)[C@H](S)OC(CS)[C@@H]1O` (stereo partly drawn) [Compound 1, 1,6-dithio-6-deoxy-β-D-galactopyranose], the “systemic or lung toxicity compared to control saline” value (C57BL/6 mice; intranasal 30 μL of 25 mM daily, 10 doses over 2 weeks, N=10 mice) was “did not cause any discernible systemic or lung toxicity”, the “BAL Eosinophil %” value (C57BL/6 mice; [3]) was 0 ± 0% and the “BAL Lymphocyte %” value (C57BL/6 mice; [3]) was 0 ± 0.1%. The “BAL Macrophage %” value (C57BL/6 mice; [3]) was 100 ± 0.1%, the “BAL Neutrophil %” value (C57BL/6 mice; [3]) was 0 ± 0% and the “BAL total cell count” value (C57BL/6 mice; [3]) was “(37.3 ± 7) × 10^4”. For the same compound, the “Lung Injury Score” value (C57BL/6 mice; mean ± SEM, blinded histology score 0-4 per Table 1B, day 15, intranasal 30 μL, 25 mM, 10 doses) was 0.4 ± 0.16, the Body weight (C57BL/6 mice; mean ± SEM, intranasal 30 μL, 25 mM, 10 doses over 2 weeks) was 18.6 ± 0.32 g and the “Blood urea nitrogen (renal function test)” value (C57BL/6 mice; [4]) was 25 ± 1.3 mg/dL. For the same compound, the “Creatinine (renal function test)” value (C57BL/6 mice; [4]) was 0.15 ± 0.01 mg/dL, the “% release of G6PD (cell toxicity)” value [2] was “minimal and similar to that of the Phosphate Buffered Saline (PBS) control; also recorded: low and similar to the PBS control” and the “concentration needed to cause a 40% decrease in the G′ of the hydrogel (ΔG′=−40%)” value [1] was 0.7 mM.
With `OC1C(O)[C@H](O)C(CS)O[C@@H]1O[C@H]1OC(CS)[C@@H](O)C(O)C1O` (stereo partly drawn) [Compound 5, 6,6′-dithio-6,6′-dideoxy-α,α-trehalose] the “concentration needed to cause a 40% decrease in the G′ of the hydrogel (ΔG′=−40%)” value [1] was 1.0 mM.
